# Assay results reported in patent US20110218143A1, “COMPOSITIONS AND METHODS FOR TISSUE REPAIR” (UNIVERSITY OF FLORIDA RESEARCH FOUNDATION, priority 2007, published 2011).
# “Also recorded” adds a separate entry of the source.
# Key:
# Type in all cases: in vivo, C57BL6/J mice
# [1] = tested on: stem cell populations in blood (cd34+, cd45+, Sca-1+ cells); test: FACS of cells expressing stem cell markers CD34, CD45, Sca-1 in blood samples
# Method: Mice received either a placebo or triptolide (400 μg/kg) by intraperitoneal injection.
# Celastrol analogs administered included dihydrocelastrol, dihydrocelastrol diacetate, and pristimerol (dihydropristimerin). Mice received either a placebo or a celastrol analog (3.0 mg/kg) by intraperitoneal injection.
# (§1) Mice received either a placebo (PBS) or oridonin (3.0 mg/kg) by intraperitoneal injection.
# [2] = tested on: stem cell populations in bone marrow (cd34+, cd45+, Sca-1+ cells); test: FACS of cells expressing stem cell markers CD34, CD45, Sca-1 in bone marrow samples
# Method: as §1
# [3] = tested on: cytokine production in mouse blood; test: Cytokine/chemokine levels in blood serum (Millipore 21-Plex, Luminex)
# Method: Mice received either a placebo, celastrol (3.0 mg/kg), or 17-AAG (10 mg/kg) by intraperitoneal injection. Blood samples were taken from all groups of mice at 0, 1, 3, 6, 24, 48, and 72 hours after administration of the placebo, celastrol, or 17-AAG. The blood samples were analyzed for cytokine production, including the production of granulocyte-macrophage colony-stimulating factor (GM-CSF), interferon-gamma (IFN-γ), interleukin-10 (IL-10), interleukin-12 subunit beta (IL-12p40), interleukin-12 heterodimer (IL-12p70), interleukin-12 homodimer (IL-12p80), vascular endothelial growth factor (VEGF), tumor necrosis factor-alpha (TNF-α), keratinocyte derived chemokine (KC), RANTES (Regulated upon Activation, Normal T-cell Expressed, and Secreted; CCL5), monocyte chemotactic protein-1 (MCP 1), macrophage inflammatory protein (MIP1β; CCL4), interleukin-4 (IL-4), interleukin-3 (IL-3), interleukin-2 (IL-2), interleukin-1 beta (IL-1β), interleukin-1 alpha (IL-1α), interleukin-9 (IL-9), interleukin-13 (IL-13), interleukin-17 (IL-17), interleukin-6 (IL-6), and interleukin-5 (IL-5). Blood serum was analyzed using a commercially available kit (e.g., Mouse cytokine/chemokine panel: 21-Plex; Millipore). Blood serum (50 μl) was assayed in duplicate using a commercially available cytokine/chemokine detection kit from Millipore following the protocol given with the product information. The final measurement was performed using a commercially available detector (e.g., computer-operated Luminex 100 IS system) and the results were expressed as pg/ml blood serum sample. Levels of cytokines in blood were quantitated as a concentration of the total volume of the sample.
# [4] = celastrol analog 3.0 mg/kg i.p., 24 hours post treatment (so in the source)
# [5] = celastrol analog 3.0 mg/kg i.p., 24 hours post treatment
# [6] = oridonin 3.0 mg/kg i.p., 48 hours post treatment
# [7] = oridonin 3.0 mg/kg i.p., 24 hours post treatment
# [8] = triptolide 400 μg/kg i.p., 24 hours post treatment
# [9] = triptolide 400 μg/kg i.p., 48 hours post treatment
# [10] = triptolide 400 μg/kg i.p., 72 hours post treatment
# [11] = i.p. celastrol 3.0 mg/kg or 17-AAG 10 mg/kg, 72 hour time course
# [12] = i.p. celastrol 3.0 mg/kg or 17-AAG 10 mg/kg, sampled 0-72 h
# [13] = i.p. celastrol 3.0 mg/kg or 17-AAG 10 mg/kg, sampled 0-72 h, vs placebo control
compound,measurement,setting,value
COC(=O)[C@]1(C)CC[C@]2(C)CC[C@]3(C)C4=CCc5c(cc(O)c(O)c5C)[C@]4(C)CC[C@@]3(C)[C@@H]2C1 [pristimerol],"Sca-1+ cells, percent of the population of blood cells",[1]; [4],about 0.25%
same,"cd34+ cells, percent of the population of blood cells",[1]; [4],about 0.4%
same,"cd45+ cells, percent of the population of blood cells",[1]; [4],about 0.06%
same,fold increase of percentage of Sca-1+ cells in blood over control,[1]; [4],~6 fold
same,fold increase of percentage of cd34+ cells in blood over control,[1]; [4],~3 fold
same,fold increase of percentage of cd45+ cells in blood over control,[1]; [4],~3 fold
same,"Sca-1+ cells, percent of the population of bone marrow cells",[2]; [5],about 0.28%
same,"cd34+ cells, percent of the population of bone marrow cells",[2]; [5],about 0.28%
same,"cd45+ cells, percent of the population of bone marrow cells",[2]; [5],about 0.16%
same,fold increase of percentage of Sca-1+ cells in bone marrow over control,[2]; [5],4-5 fold
same,fold increase of percentage of cd34+ cells in bone marrow over control,[2]; [5],greater than 4 fold
same,fold increase of percentage of cd45+ cells in bone marrow over control,[2]; [5],greater than 5 fold
C=C1C(=O)[C@]23[C@H](O)[C@H]1CC[C@H]2[C@@]12CO[C@]3(O)[C@@H](O)[C@@H]1C(C)(C)CC[C@@H]2O [oridonin],"Sca-1+ cells, percent of the population of blood cells",[1]; [6],0.14%
same,"cd34+ cells, percent of the population of blood cells",[1]; [6],approximately 0.18%
same,fold increase of percentage of Sca-1+ cells in blood over control,[1]; [6],~1.4 fold
same,fold increase of percentage of cd34+ cells in blood over control,[1]; [6],~1.8 fold
same,"CD34 cells, percent of the population of bone marrow cells",[2]; [7],greater than 0.5%
same,"Sca-1+ cells, percent of the population of bone marrow cells",[2]; [7],about 0.5%
same,fold increase of percentage of Sca-1+ cells in bone marrow over control,[2]; [7],≥ 10 fold
same,fold increase of percentage of cd34+ cells in bone marrow over control,[2]; [7],≥ 10 fold
CC(C)[C@]12O[C@H]1[C@@H]1O[C@]13[C@]1(O[C@H]1C[C@H]1C4=C(CC[C@@]13C)C(=O)OC4)[C@@H]2O [triptolide],"CD34-expressing cells, percent of the population of blood cells",[1]; [8],~1%
same,"Sca-1+ cells, percent of the population of blood cells",[1]; [8],~1%
same,"Sca-1+ cells, percent of cells in blood",[1]; [9],~2%
same,"cd34+ cells, percent of cells in blood",[1]; [9],~2%
same,"cd45+ cells, percent of the cells in blood",[1]; [9],about 0.2%
same,"Sca-1+ cells, percent of cells in blood",[1]; [10],~3%
same,"cd34+ cells, percent of cells in blood",[1]; [10],about 3%
same,"cd34+ cells, percent of the population of bone marrow cells",[2]; [8],~0.8%
same,fold increase in the proportion of Sca-1 stem cells in bone marrow vs untreated mice,[2]; [8],approximately 15 fold
same,fold increase of percentage of cd34+ cells in bone marrow over control,[2]; [8],~16 fold
same,fold increase of percentage of cd45+ cells in bone marrow vs untreated control,[2]; [8],about 3 fold
same,"sca-1+ stem cells, percent of bone marrow cell population",[2]; [8],0.75%
same,"cd34+ cells, percent of bone marrow cells",[2]; [9],0.3%
same,"cd45+ cells, percent in bone marrow",[2]; [9],about 0.07%
same,fold increase of percentage of cd34+ cells in bone marrow compared to control mice,[2]; [9],6 fold
same,"sca-1+ cells, percent of bone marrow cell population",[2]; [9],0.25%
same,"CD34 cells, percent in bone marrow",[2]; [10],0.65%
same,"Sca-1+ cells, percent in bone marrow",[2]; [10],about 0.5%
same,"cd45+ cells, percent in bone marrow",[2]; [10],~0.12%
dihydrocelastrol diacetate,"Sca-1+ cells, percent of the population of blood cells",[1]; [4],about 1.4%
same,"cd34+ cells, percent of the population of blood cells",[1]; [4],1.5%
same,"cd45+ cells, percent of the population of blood cells",[1]; [4],about 0.4%
same,fold increase of percentage of Sca-1+ cells in blood over control,[1]; [4],~36 fold
same,fold increase of percentage of cd34+ cells in blood over control,[1]; [4],~10 fold
same,fold increase of percentage of cd45+ cells in blood over control,[1]; [4],~20 fold
same,"Sca-1+ cells, percent of the population of bone marrow cells",[2]; [5],about 0.17%
same,"cd34+ cells, percent of the population of bone marrow cells",[2]; [5],0.15%
same,change of percentage of cd45+ cells in bone marrow compared to untreated control,[2]; [5],decrease
same,fold increase of percentage of Sca-1+ cells in bone marrow over control,[2]; [5],~3 fold
same,fold increase of percentage of cd34+ cells in bone marrow over control,[2]; [5],~3 fold
"C=CCNC1=C2C[C@@H](C)C[C@H](OC)[C@H](O)[C@@H](C)/C=C(\C)[C@H](OC(N)=O)[C@@H](OC)/C=C\C=C(/C)C(=O)NC(=CC1=O)C2=O [Formula 17-AAG, 17-allylamino-17-demethoxygeldanamycin]",level of TNF-α compared to placebo control,"[3]; 17-AAG 10 mg/kg i.p., by 24 hours post treatment",declined below levels seen in the placebo control
same,level of MCP1 compared to placebo control,"[3]; 17-AAG 10 mg/kg i.p., over the course of the experiment",not significantly different
same,level of IL-17 compared to placebo control,[3]; i.p. celastrol 3.0 mg/kg (throughout 72 hours) or 17-AAG 10 mg/kg (up to 48 hours),consistently high
same,level of IFN-γ compared to placebo control,[3]; [11],remained elevated up to 72 hours
same,level of IL-1β compared to placebo control,[3]; [11],remained elevated up to 72 hours
same,level of IL-3 compared to placebo control,[3]; [11],remained elevated up to 72 hours
same,level of IL-4 compared to placebo control,[3]; [11],remained elevated up to 72 hours
same,level of IL-5 compared to placebo control,[3]; [11],remained elevated up to 72 hours
same,level of IL-10 compared to placebo control,[3]; [11],remained elevated up to 72 hours; also recorded: had risen again by 72 hours
same,level of IL-12p40 compared to placebo control,[3]; [11],elevated again at 24 hours
same,level of IL-12p70 compared to placebo control,[3]; [11],remained elevated up to 72 hours
same,level of IL-12p80 compared to placebo control,[3]; [11],remained elevated up to 72 hours
same,time by which GM-CSF (elevated pre treatment) declined to placebo control levels,[3]; [12],≤ 6 h
same,time by which IL-1α returned to levels seen in the placebo control,[3]; [12],≤ 24 h
same,time by which IL-2 returned to levels seen in the placebo control,[3]; [12],≤ 6 h
same,time by which IL-6 returned to levels seen in the placebo control,[3]; [12],≤ 24 h
same,time by which IL-9 (elevated pre treatment) declined to placebo control levels,[3]; [12],≤ 6 h
same,time by which IL-13 returned to levels seen in the placebo control,[3]; [12],≤ 6 h
same,time by which KC returned to levels seen in the placebo control,[3]; [12],≤ 24 h
same,time by which MIP1β returned or declined to placebo control levels,[3]; [12],≤ 6 h
same,time by which RANTES returned to levels seen in the placebo control,[3]; [12],up to 72 hours
same,time by which VEGF returned to levels seen in the placebo control,[3]; [12],≤ 6 h
same,time of peak level of IFN-γ post treatment,[3]; [13],around 24 hours
same,time of peak level of IL-1α post treatment,[3]; [13],around 6 hours
same,time of peak level of IL-1β post treatment,[3]; [13],around 24 hours
same,time of peak level of IL-2 post treatment,[3]; [13],around 3 hours
same,time of peak level of IL-3 post treatment,[3]; [13],around 24 hours
same,time of peak level of IL-4 post treatment,[3]; [13],around 24 hours
same,time of peak level of IL-5 post treatment,[3]; [13],around 24 hours
same,time of peak level of IL-6 post treatment,[3]; [13],around 6 hours
same,time of peak level of IL-10 post treatment,[3]; [13],around 24 hours
same,time of peak level of IL-12p70 post treatment,[3]; [13],around 24 hours
same,time of peak level of IL-12p80 post treatment,[3]; [13],around 24 hours
same,time of peak level of IL-13 post treatment,[3]; [13],around 3 hours
same,time of peak level of KC post treatment,[3]; [13],around 6 hours
same,time of peak level of MCP1 post treatment,[3]; [13],around 24 hours
same,time of peak level of MIP1β post treatment,[3]; [13],around 3 hours
same,time of peak level of RANTES post treatment,[3]; [13],around 48 hours
same,time of peak level of TNF-α post treatment,[3]; [13],around 3 hours
same,time of peak level of VEGF post treatment,[3]; [13],around 3 hours
